The text below walks through data of article PMC2909366 (Journal of biological inorganic chemistry : JBIC : a …, 2010).

Assay [1] addresses T1, chlorite dismutase (Cld) (Dechloromonas aromatica (nom. nud.), UniProt Q47CX0). The assay can be described thus: X-ray co-crystal structure. Format: binding.
Assay [2] has as its target T1, chlorite dismutase (Cld). The assay can be described thus: biochemical.

T1 sequence (Q47CX0 35-282): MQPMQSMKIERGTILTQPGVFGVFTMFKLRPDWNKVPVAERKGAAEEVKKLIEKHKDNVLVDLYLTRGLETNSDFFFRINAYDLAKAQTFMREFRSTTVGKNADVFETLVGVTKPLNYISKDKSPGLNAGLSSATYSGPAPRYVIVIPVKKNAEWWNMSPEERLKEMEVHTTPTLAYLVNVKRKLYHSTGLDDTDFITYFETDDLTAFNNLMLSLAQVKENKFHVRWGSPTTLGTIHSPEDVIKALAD

Compound `O=NO` [nitrite] registered a Kd on chlorite dismutase (Cld) [1] of 1.12 mM.

On to `CC(=O)O` [acetate], for which binding at chlorite dismutase (Cld) [2] was put at a Kd of 36 mM.
